Assay results: US8575214B2, “MGlu 2/3 agonists” (Eli Lilly and Company, priority 2012, dated 2013)

Key:
[1] = both, human, pH 7.4
Procedure: Liver S9 fractions are obtained from Xenotech LLC (Lenexa, Mo.). The lot is from a pool of two donors, one male and one female. The liver S9 fraction is prepared and diluted using a homogenization buffer consisting of 50 mM Tris, pH 7.4 at 4° C. and 150 mM potassium chloride without EDTA. Prodrugs are incubated in the liver homogenate for 2 hours at 37° C., after which the concentration of active metabolite is determined by LC/MS/MS. Hydrolysis of Clopidogrel to Clopidogrel Carboxylic Acid is utilized as an assay positive control.
To ensure hydrolysis is not due to chemical instability, prodrugs are also incubated with PBS buffer alone without liver S-9.
A mobile phase gradient is utilized starting mobile phase ratio A/B of 99.9/0.1 and finishing at 1/99.

human mGlu3 receptor = target: T1, human mGlu3 receptor (Homo sapiens, UniProt Q14832); experiment: Human mGlu3 agonist FLIPR assay; type: cell-based; conditions: AV-12 cells expressing human mGlu3, EAAT1 and Gα15; relative EC50; ±52.5 SEM, n=8; read-out: EC50 in the hmGlu3 FLIPR assay
T1 construct: expressed in transfected cells; host or cells: AV-12 cells (Syrian hamster fibroblasts), co-transfected with rat EAAT1 and Galpha15
T1 sequence (Q14832 23-879): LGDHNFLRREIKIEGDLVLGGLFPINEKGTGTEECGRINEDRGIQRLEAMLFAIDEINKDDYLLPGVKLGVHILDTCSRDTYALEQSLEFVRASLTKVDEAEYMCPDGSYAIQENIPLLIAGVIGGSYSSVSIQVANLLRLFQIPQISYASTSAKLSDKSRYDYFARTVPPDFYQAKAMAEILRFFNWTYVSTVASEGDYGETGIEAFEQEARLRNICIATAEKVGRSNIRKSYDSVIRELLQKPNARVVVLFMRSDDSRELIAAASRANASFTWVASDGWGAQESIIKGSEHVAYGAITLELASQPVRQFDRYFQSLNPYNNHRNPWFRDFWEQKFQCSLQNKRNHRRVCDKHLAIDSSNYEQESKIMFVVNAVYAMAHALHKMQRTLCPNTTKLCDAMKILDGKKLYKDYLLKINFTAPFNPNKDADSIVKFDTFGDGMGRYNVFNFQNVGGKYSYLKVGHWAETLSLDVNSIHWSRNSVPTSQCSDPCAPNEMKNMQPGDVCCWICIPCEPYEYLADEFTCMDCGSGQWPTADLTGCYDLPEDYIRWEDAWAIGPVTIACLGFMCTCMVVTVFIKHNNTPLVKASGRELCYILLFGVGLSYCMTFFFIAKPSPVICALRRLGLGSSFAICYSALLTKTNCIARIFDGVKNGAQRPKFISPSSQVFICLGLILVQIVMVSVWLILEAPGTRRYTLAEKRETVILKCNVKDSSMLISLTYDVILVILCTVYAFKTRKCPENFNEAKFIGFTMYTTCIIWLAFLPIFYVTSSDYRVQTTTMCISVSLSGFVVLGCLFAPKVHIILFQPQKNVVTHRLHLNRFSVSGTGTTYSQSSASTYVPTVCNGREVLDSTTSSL
Source text: (§1) AV-12 cell lines, derived from Syrian Hamster fibroblasts and stably expressing the human mGlu2 or mGlu3 receptor and co-transfected with the rat glutamate transporter EAAT 1 (Excitatory Amino Acid Transporter 1) and the Gα15 subunit, are used for these studies. The expression of Gα15 allows Gi-coupled receptors to signal through the phospholipase C pathway, resulting in the ability to measure receptor activation by a fluorometric calcium response assay. […] Intracellular calcium levels are monitored before and after the addition of compounds using a Fluorometric Imaging Plate Reader (FLIPR, Molecular Devices). […] Results are analyzed using Prism v4.03 (GraphPad Software). […] After taking an initial 5-sec fluorescent read on the FLIPR instrument, a compound of the invention is added to the cell plate (50 μL per well). […] The compound effect is measured as maximal minus minimal peak heights in relative fluorescent units (RFUs) corrected for basal fluorescence measured in the absence of glutamate. […] Agonist effects are quantified as percent stimulation induced by compound alone relative to the maximal glutamate response. All data are calculated as relative EC50 values using a four-parameter logistic curve fitting program (ActivityBase v5.3.1.22).

male Sprague-Dawley rats = experiment: Reversal of persistent pain induced by formalin injection; type: in vivo; conditions: ip, dosed 1 hour prior to intraplantar formalin, rat
[2] = tested on: male, Sprague-Dawley rats; experiment: Reversal of phencyclidine (PCP)-induced hyperlocomotor activity in rats; type: in vivo, rat
Source text: Motor activity is monitored by placing individual male, Sprague-Dawley (Harlan, Indianapolis, Ind.) rats in transparent, plastic shoe-box cages of the dimensions 45×25×20 cm, with 1 cm depth of wood chips as bedding, and a metal grill on top of the cage. Motor monitors (Kinder Scientific) consist of a rectangular rack of 12 photobeams arranged in an 8×4 formation, (or a high density grouping of 22 in a 15×7 pattern) at a height of 5 cm, with a second rack (for measuring rearing behaviors) at a height of 15 cm. The shoe box cage is placed inside of these racks, with the racks on a 3 foot high tabletop in an isolated room. A compound of the invention (active) is dosed (intraperitoneal route) within a range of 0.3-10 mg/kg, 30 minutes prior to a 5 mg/kg challenge dose of phencyclidine (PCP). A compound of the invention (prodrug) is orally dosed within a range of 0.3-30 mg/kg, in overnight fasted rats, 4 hours prior to a 5 mg/kg challenge dose of PCP. On the test day, rats are placed in the test cage and allowed to acclimate for 30 minutes prior to PCP challenge; rats are monitored for an additional 60 minutes following PCP administration.
Data analysis and ED50 calculations are conducted using GraphPad Prism (San Diego, Calif. USA). Power analyses have determined that 8-10 rats per group are needed to have appropriate statistical power for detecting treatment differences (power=0.8). A one-way analysis of variance (ANOVA) with a post-hoc Dunnett's multiple comparison test is conducted on the total 60 minute locomotor activity. ED50 calculations are performed using non-linear regression curve fitting on percent reversal transformed data for each dose.

Male Fischer F-344 rats = experiment: Attenuation of stress-induced hyperthermia in rats; type: in vivo; conditions: rat, 1-hr pretreatment, relative to vehicle response
Source text: In many anxiety disorders, hyperthermia occurs as part of the pathology and is considered a symptom of the disease. Compounds which attenuate stress-induced hyperthermia in animals are believed to be useful in treating anxiety disorders in humans. Generalized anxiety disorder and post traumatic stress disorder are among the disorders that may be treated with such compounds. The conventional and minimally-invasive method for analyzing stress-induced hyperthermia is by measuring body temperature, and stress-induced increases in body temperature, via rectal thermometer. Male Fischer F-344 rats (Harlan, Indianapolis, Ind., USA) weighing between 275-350 g are tested. All animals are individually-housed with food and automated water available ad libitum, and maintained on a 12 h light/dark cycle (lights on at 06:00). Animals are fasted for approximately 12-18 hours before the experiment, which is conducted during the light phase. Rats are dosed intraperitoneal (IP) in a dose volume of 1 mL/kg with compounds of the invention in the range of 0.3, 1, 3, and 10, mg/kg. […]
After the pretreatment period, rats are taken individually to a brightly lit adjacent room where baseline body temperatures are determined by insertion of a rectal probe lubricated with mineral oil. Body temperature is assessed using a […] […] Ten minutes later a second body temperature measurement is recorded (T2). […]

human mGlu2 receptor = target: T2, human mGlu2 receptor (Homo sapiens, UniProt Q14416); experiment: Human mGlu2 agonist FLIPR assay; type: cell-based; conditions: AV-12 cells expressing human mGlu2, EAAT1 and Gα15; relative EC50; ±5.9 SEM, n=3; read-out: EC50 in the hmGlu2 FLIPR assay
T2 construct: expressed in transfected cells; host or cells: AV-12 cells (Syrian hamster fibroblasts), co-transfected with rat EAAT1 and Galpha15
T2 sequence (Q14416 19-872): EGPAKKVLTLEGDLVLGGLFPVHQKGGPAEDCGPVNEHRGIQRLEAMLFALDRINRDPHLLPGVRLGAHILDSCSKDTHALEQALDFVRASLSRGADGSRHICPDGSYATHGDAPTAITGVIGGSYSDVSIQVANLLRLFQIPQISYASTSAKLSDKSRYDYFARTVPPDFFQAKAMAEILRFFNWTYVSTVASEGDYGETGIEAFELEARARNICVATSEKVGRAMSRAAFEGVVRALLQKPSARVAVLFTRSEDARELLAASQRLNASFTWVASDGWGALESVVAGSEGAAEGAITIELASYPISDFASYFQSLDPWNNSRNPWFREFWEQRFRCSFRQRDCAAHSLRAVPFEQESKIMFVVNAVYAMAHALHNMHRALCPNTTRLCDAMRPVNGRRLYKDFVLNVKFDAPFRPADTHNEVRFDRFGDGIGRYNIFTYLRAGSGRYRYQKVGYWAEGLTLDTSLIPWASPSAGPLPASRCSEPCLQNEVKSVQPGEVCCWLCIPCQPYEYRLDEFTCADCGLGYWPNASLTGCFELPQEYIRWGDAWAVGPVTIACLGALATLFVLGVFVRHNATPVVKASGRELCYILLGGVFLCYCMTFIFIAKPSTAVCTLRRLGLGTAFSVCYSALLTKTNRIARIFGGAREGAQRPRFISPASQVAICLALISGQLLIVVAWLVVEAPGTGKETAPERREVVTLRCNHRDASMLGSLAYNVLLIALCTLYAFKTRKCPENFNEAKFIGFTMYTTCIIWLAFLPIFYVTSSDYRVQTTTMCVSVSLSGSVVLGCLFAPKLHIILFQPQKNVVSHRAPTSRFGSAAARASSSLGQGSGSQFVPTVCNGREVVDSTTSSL
Source text: as §1

[3] = 1 h, 10 µM, pH 7.4
Procedure: Frozen human duodenum intestinal homogenates (1:2 tissue:buffer ratio using 100 mM Tris Phosphate buffer, pH 7.4) are obtained from Celsius In Vitro Technologies (Baltimore, Md.) that were both phenylmethylsulphonylfluoride (PMSF) and EDTA free.
All original tissue collections are performed at 4° C. and immediately frozen at −70° C. Human intestinal homogenates are thawed and diluted to a final protein concentration of 0.5 mg/mL in 100 mM PBS buffer, pH 7.4 immediately prior to the incubations.
Incubations are conducted in 96-well plates and all prodrugs are run in duplicate on each day. Stock prodrug solutions are prepared in water at a concentration of 1 mM. A 200 μL aliquot of 0.5 mg/mL intestinal homogenate and 196 μL of 100 mM PBS buffer are placed in a 96-well plate in a 37° C. water bath. Using a 96-well pipettor, 4 μL of the 1 mM prodrug solution is transferred into the homogenate. Immediately after addition of the prodrug (time zero) and after 1 hour incubation, 50 μL samples of the incubation mixture are removed using an automated disposable simultaneous 96 well pipettor and added directly to 200 μL of methanol quench solution containing 100 ng/mL of Internal Standard. The samples are then centrifuged at 3500 rpm for 5 minutes at 10° C. The supernatant (200 μL) is transferred to a final 96 well PCR plate and sealed for analysis by LC/MS/MS.
Concentrations of hydrolyzed active metabolite in the incubation mixtures are determined using LC/MS/MS detection on a Sciex API 4000 quadrapole mass spectrometer with Analyst version 1.4.2, TurbolonSpray, positive ionization, and Selected Reaction Monitoring (SRM). […]
Averages and standard deviations are calculated using Microsoft® Office Excel® 2007. Amount of hydrolysis is determined as a molar percentage of active metabolite formed relative to prodrug concentration added.

hPepT1 = target: T3, hPepT1 (Homo sapiens, UniProt P46059); experiment: In vitro PepT1 GlySar inhibition screen and IC50 determination; type: cell-based; conditions: PepT1 transiently transfected HeLa cells
T3 construct: expressed in transfected cells; host or cells: HeLa cells (ATCC), transient transfection with PepT1 DNA using FuGene6
T3 sequence (P46059 1-708): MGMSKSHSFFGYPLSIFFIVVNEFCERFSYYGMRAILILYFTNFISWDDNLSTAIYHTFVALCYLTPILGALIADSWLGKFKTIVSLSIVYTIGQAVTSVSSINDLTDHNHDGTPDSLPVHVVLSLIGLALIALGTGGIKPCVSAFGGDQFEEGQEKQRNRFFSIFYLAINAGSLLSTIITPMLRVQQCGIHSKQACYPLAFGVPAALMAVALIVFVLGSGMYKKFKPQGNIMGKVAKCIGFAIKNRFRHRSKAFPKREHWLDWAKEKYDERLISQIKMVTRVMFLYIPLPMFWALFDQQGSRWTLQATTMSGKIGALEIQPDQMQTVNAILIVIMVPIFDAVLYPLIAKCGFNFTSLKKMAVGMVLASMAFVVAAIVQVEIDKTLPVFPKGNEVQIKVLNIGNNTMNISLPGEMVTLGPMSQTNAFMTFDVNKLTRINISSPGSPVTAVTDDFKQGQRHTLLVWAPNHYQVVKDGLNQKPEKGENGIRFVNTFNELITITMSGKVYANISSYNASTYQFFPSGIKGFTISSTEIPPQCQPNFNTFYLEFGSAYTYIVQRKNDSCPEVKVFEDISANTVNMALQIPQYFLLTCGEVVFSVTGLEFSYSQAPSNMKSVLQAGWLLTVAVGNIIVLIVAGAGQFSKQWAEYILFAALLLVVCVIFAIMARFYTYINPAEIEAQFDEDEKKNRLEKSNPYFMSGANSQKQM
Procedure: HeLa cells, […], (American Type Culture Collection) are grown in Hyclone Medium (Invitrogen, Cat# SH30243) containing 10% fetal bovine serum (FBS), 0.1 mM non essential amino acids (NEAA), and 100 units/mL penicillin with 100 μg/mL streptomycin at 37° C. in a 5% CO2 humidified atmosphere. The cell line is used for up to 40 passages and then discarded. Frozen cells in 1 ml vials are thawed in water bath for 1-2 minutes and added to 5 mL of cell medium at 37° C. Each of the T-flasks is provided with 8.5 mL of the fresh medium and 1.5 mL of the cell stock. Cells are passaged twice during a week. This is achieved by rinsing the flasks with 10 mL of phosphate buffered saline-ethylene diaminetetra acetic acid (PBS-EDTA), adding 2 mL of trypsin for 2-5 minutes, to detach the cells, and adding 8 mL of fresh medium to inhibit further activity of trypsin. Each new flask receives a combination of 8.5 mL of fresh medium and 1.5 mL of cell stock, in order to obtain 1:6 cell dilution. Cells are incubated at 37° C., until ready for the uptake study.
Cells that are 70-80% confluent in the T-flasks are plated 1 day prior to the transfection procedure. The flask with the cell stock is treated with PBS-EDTA and trypsin to detach the cells, and transfection medium is used from this point. Transfection medium consists of Dulbecco's Modified Eagle Medium (DMEM)+NEAA. To each well, 0.5 mL of the cell mixture is added (1.3×10^5 is the desired cell concentration) and the cells are incubated at 37° C. overnight. Twenty four hours before the assay, cells are transfected with PEPT1. Transfection mixture is prepared by mixing 600 μL of serum free transfection medium, 18 μL of FuGene6 (Roche Diagnostics), and 11 μg of the PepT1 DNA. The transfection reagent-DNA complex is incubated for 20 minutes and 24 μL of the reagent-DNA complex is added to each well.
J. Pharm. Exper Ther. 310:437-445). […] Uptake media consists of 140 mM NaCl, 5.4 mM KCl, 1.8 mM CaCl2, 0.8 mM MgSO4, 5 mM Glucose, 25 mM tris(hydroxymethyl)aminomethane buffer (TRIS). The solution is then brought to pH 6.0 using 2-(N-morpholino)ethanesulfonic acid. The incubation volume is 500 μL and is performed at room temperature for 3 minutes. To stop the uptake at the conclusion of the incubation time, the uptake media is aspirated off of the cell monolayer and 500 μL of ice cold PBS added to the well. The cells are washed 3 times with 500 μL of room temperature PBS without Ca^+2 and Mg^+2. The cells are then lysed with 300 μL of 1% Triton X100 H2O solution. […] A no inhibitor control is established and the percent inhibition of each prodrug is calculated with respect to this control.
The incubation and sampling procedures are exactly the same as the PepT1 screen described above.

SMILES | Hydrolysis of Clopidogrel to Clopidogrel Carboxylic Acid (positive control) [1] | EC50 (human mGlu3 receptor) | ED50 (male Sprague-Dawley rats) | ED50 ([2]; 0.5 h, i.p., 30 minutes prior to 5 mg/kg PCP, rat) | T35 (dose producing a 35% reduction in stress-induced hyperthermic response) (Male Fischer F-344 rats) | EC50 (human mGlu2 receptor) | human intestinal hydrolysis relative to Internal Prodrug A [3] | IC50 (hPepT1; 0.0625 to 25 mM, read-out: hPepT1 [3H]Gly-Sar uptake inhibition IC50) | inhibition at 5000 µM (hPepT1; pH 6.0, 3 minutes, read-out: hPepT1 [3H]Gly-Sar uptake inhibition at 5 mM) | ED50 ([2]; Rattus norvegicus, p.o., overnight fasted rats, 4 hours prior to 5 mg/kg PCP)
COC(=O)[C@H](c1ccccc1Cl)N1CCc2sccc2C1 [Clopidogrel] | 73.0% | – | – | – | – | – | – | – | – | –
N[C@@]1(C(=O)O)CC2(CC2)[C@H]2[C@H](C(=O)O)[C@H]21 [Example 2, (1S,2S,5R,6S)-2-Aminospiro[bicyclo[3.1.0]hexane-4,1′-cyclopropane]-2,6-dicarboxylic acid] | – | 0.285 µM | 0.7 mg/kg | 1.46 mg/kg | 0.57 mg/kg | 0.039 µM | – | – | – | –
C[C@H](N)C(=O)N[C@@]1(C(=O)O)CC2(CC2)[C@H]2[C@H](C(=O)O)[C@H]21.Cl [Example 5, (1S,2S,5R,6S)-2-[[(2S)-2-Aminopropanoyl]amino]spiro[bicyclo[3.1.0]hexane-4,1′-cyclopropane]-2,6-dicarboxylic acid hydrochloride] | – | – | – | – | 6.4 mg/kg | – | 36% | 1980 µM | 89% | 2.95 mg/kg
